Tests used:
CDK2 [1] = molecular target: CDK2 (UniProt P24941); test: Enzyme Assay
CDK2 [2] = molecular target: CDK2 (UniProt P24941); test: Enzyme Assay; remark: listed apart in the source

| IC50 (CDK2 [1]) [nM] | IC50 (CDK2 [2]) [nM] | SMILES |
| --- | --- | --- |
| < 100 | < 100 | CCCN(CCOc1ccc(-c2[nH]nc3c2C(=O)c2c(NC(=O)NN4CCOCC4)cccc2-3)cc1)CC1CC1 |
| < 100 | < 100 | O=C(Nc1cccc2c1C(=O)c1c-2n[nH]c1-c1ccc(OCCN2CCCC2)cc1)NN1CCOCC1 |
| < 100 | < 100 | CN1CCN(NC(=O)Nc2cccc3c2C(=O)c2c-3n[nH]c2-c2ccc(OCCN3CCCC3)cc2)CC1 |
| < 100 | < 100 | CC(C)c1nn(-c2c(Cl)cc(Cl)cc2Cl)c2nc(Cc3ccc(NS(=O)(=O)CCCN4CCOCC4)cc3)[nH]c(=O)c12 |
| < 100 | < 100 | CC(C)c1nn(-c2c(Cl)cccc2Cl)c2nc(Cc3ccc(O)c(CN4CCN(C(C)C)CC4)c3)[nH]c(=O)c12 |
| < 100 | < 100 | O=C(Nc1cccc2c1C(=O)c1c-2n[nH]c1-c1ccc(OCCN(CCO)CCO)cc1)NN1CCOCC1 |
| < 10 | – | CC(C)c1nn(-c2c(Cl)cc(S(N)(=O)=O)cc2Cl)c2nc(Cc3ccc(OCCN4CCOCC4)cc3)[nH]c(=O)c12 |
| < 100 | – | CC(C)c1nn(-c2c(Cl)cccc2Cl)c2nc(Cc3ccc(OCCOC(=O)[C@@H](N)C(C)C)cc3)[nH]c(=O)c12 |
| < 10 | – | Cc1cc(-c2[nH]nc3c2C(=O)c2c(NC(=O)NN4CCOCC4)cccc2-3)ccc1OCCN1CCN(C(C)C)CC1 |
| < 100 | – | CC(C)c1nn(-c2c(Cl)cccc2Cl)c2nc(Cc3ccc(O)c(CN4CCOCC4)c3)[nH]c(=O)c12 |
| < 10 | – | CC(C)c1nn(-c2c(Cl)cccc2Cl)c2nc(Cc3ccc(OCCN4CCOCC4)cc3)[nH]c(=O)c12 |
| < 10 | < 100 | CN1CCN(NC(=O)Nc2cccc3c2C(=O)c2c-3n[nH]c2-c2ccc(OCCN3CCOCC3)cc2)CC1 |
| < 10 | < 100 | CC(C)c1nn(-c2c(Cl)cccc2Cl)c2nc(Cc3ccc(OP(=O)(O)O)cc3)[nH]c(=O)c12 |
| < 100 | – | O=C(Nc1cccc2c1C(=O)c1c(-c3ccc(OCCN4CCOCC4)c(F)c3)n[nH]c1-2)NN1CCOCC1 |
| < 100 | – | CCOC(=O)CN1CCN(NC(=O)Nc2cccc3c2C(=O)c2c-3n[nH]c2-c2ccc(OCCN3CCCC3)cc2)CC1 |
| < 100 | – | CN1CCN(NC(=O)Nc2cccc3c2C(=O)c2c-3n[nH]c2-c2ccc(OCC(=O)N3CCCC3)cc2)CC1 |
| < 100 | – | O=C(Nc1cccc2c1C(=O)c1c(-c3ccc(CN(CCO)CCO)cc3)n[nH]c1-2)NN1CCOCC1 |
| < 100 | – | CC(C)c1nn(-c2c(Cl)cccc2Cl)c2nc(Cc3ccc(OCCOP(=O)(O)O)cc3)[nH]c(=O)c12 |
| < 10 | – | CC(C)N1CCN(CCCOc2ccc(-c3[nH]nc4c3C(=O)c3c(NC(=O)NN5CCOCC5)cccc3-4)cc2)CC1 |
| < 100 | – | O=C(Nc1cccc2c1C(=O)c1c-2n[nH]c1-c1ccc(OP(=O)(O)O)cc1)NN1CCOCC1 |

| IC50 (CDK2 [1]) [nM] | IC50 (CDK2 [2]) [nM] | SMILES |
| --- | --- | --- |
| < 100 | – | Cc1cc(OCCN2CCCC2)ccc1-c1[nH]nc2c1C(=O)c1c(NC(=O)NN3CCN(C)CC3)cccc1-2 |
| < 100 | – | O=C(Nc1cccc2c1C(=O)c1c-2n[nH]c1-c1ccc(S(=O)(=O)N2CCNCC2)cc1)NN1CCOCC1 |
| < 10 | < 10 | CC(C)N1CCN(CCOc2ccc(-c3[nH]nc4c3C(=O)c3c(NC(=O)NN5CCOCC5)cccc3-4)cc2)CC1 |
| < 100 | – | CN1CCN(NC(=O)Nc2cccc3c2C(=O)c2c-3n[nH]c2-c2ccc(OCCn3cccn3)cc2)CC1 |
| < 100 | < 100 | CC(C)c1nn(-c2c(Cl)cc(Cl)cc2Cl)c2nc(Cc3ccc(OCCN4CCOCC4)cc3)[nH]c(=O)c12 |
| < 100 | – | CCN(CCO)S(=O)(=O)c1cc(Cl)c(-n2nc(C(C)C)c3c(=O)[nH]c(Cc4ccc(OCCN5CCOCC5)cc4)nc32)c(Cl)c1 |
| < 100 | – | Cc1cc(-c2[nH]nc3c2C(=O)c2c(NC(=O)NN4CCN(C)CC4)cccc2-3)ccc1OCCN1CCN(C(C)C)CC1 |
| < 100 | – | O=C(Nc1cccc2c1C(=O)c1c-2n[nH]c1-c1ccc(OCCN2CCOCC2)cc1)NN1CCOCC1 |
| < 100 | – | CC(C)c1nn(-c2c(Cl)cc(Cl)cc2Cl)c2nc(Cc3ccc(OCC(C)(C)O)cc3)[nH]c(=O)c12 |
| < 100 | – | Cc1cc(OCCN2CCN(C(C)C)CC2)ccc1-c1[nH]nc2c1C(=O)c1c(NC(=O)NN3CCN(C)CC3)cccc1-2 |
| < 100 | – | CN1CCN(NC(=O)Nc2cccc3c2C(=O)c2c-3n[nH]c2-c2ccc(OCCN(CCO)CCO)cc2)CC1 |
| < 100 | – | O=C(Nc1cccc2c1C(=O)c1c-2n[nH]c1-c1ccc(OCC(=O)N2CCCC2)cc1)NN1CCOCC1 |
| < 100 | – | COCCOc1ccc(Cc2nc3c(c(C(C)C)nn3-c3c(Cl)cccc3Cl)c(=O)[nH]2)cc1 |
| < 100 | – | CC(C)c1nn(-c2c(Cl)cccc2Cl)c2nc(Cc3ccc(OCC(C)(C)O)cc3)[nH]c(=O)c12 |
| < 100 | – | CC(C)c1nn(-c2c(Cl)cccc2Cl)c2nc(Cc3ccc(NS(=O)(=O)CCCN4CCOCC4)cc3)[nH]c(=O)c12 |
| < 100 | – | COc1cc(-c2[nH]nc3c2C(=O)c2c(NC(=O)NN4CCOCC4)cccc2-3)ccc1OCCN1CCCC1 |
| < 10 | – | Cc1cc(OCCN2CCCC2)ccc1-c1[nH]nc2c1C(=O)c1c(NC(=O)NN3CCOCC3)cccc1-2 |
| < 100 | – | O=C(Nc1cccc2c1C(=O)c1c(-c3ccc(CN4CCOCC4)cc3)n[nH]c1-2)NN1CCOCC1 |
| < 10 | – | COCCN1CCN(Cc2ccc(-c3[nH]nc4c3C(=O)c3c(NC(=O)NN5CCOCC5)cccc3-4)cc2)CC1 |
| < 100 | – | CC(C)c1nn(-c2c(Cl)cccc2Cl)c2nc(Cc3ccc(CN4CCN(C(C)C)CC4)c(O)c3)[nH]c(=O)c12 |
